Key:
KIT = target: T1, KIT (Homo sapiens, UniProt P10721); assay: Competition binding assay, KIT Kd
T1 construct: made in house
Protocol: (§1) Competition binding assays used herein were developed, validated and performed as described in Fabian et al., Nature Biotechnology 2005, 23, 329-336. Kinases were produced as fusions to T7 phage (See, Fabian et al. or WO04/015142) or alternatively, the kinases were expressed in HEK-293 cells and subsequently tagged with DNA for PCR detection (See, WO08/005310). For the binding assays, streptavidin-coated magnetic beads were treated with biotinylated affinity ligands for 30 min at room temperature to generate affinity resins. The liganded beads were blocked with excess biotin and washed with blocking buffer (SeaBlock (Pierce), 1% BSA, 0.05% Tween 20, 1 mM DTT) to remove unbound ligand and to reduce non-specific binding. Binding reactions were assembled by combining kinase, liganded affinity beads, and test compounds in 1× binding buffer (20% SeaBlock, 0.17×PBS, 0.05% Tween 20, 6 mM DTT). Test compounds were prepared as 100× stocks in DMSO and diluted into the aqueous environment. Kds were determined using an eleven point threefold serial dilutions. DMSO or control compounds were was added to control assays lacking a test compound. Primary screen assays were performed in polypropylene 384-well plates in a final volume of 20-40 μL, while Kd determinations were performed in polystyrene 96-well plates in a final volume of 135 μL. The assay plates were incubated at room temperature with shaking for 1 hour to allow the binding reactions to reach equilibrium, and the affinity beads were washed extensively with wash buffer (1×PBS, 0.05% Tween 20) to remove unbound protein. The beads were then resuspended in elution buffer (1×PBS, 0.05% Tween […] non-biotinylated affinity ligand) and incubated at room temperature with shaking for 30 min. The kinase concentration in the eluates was measured by quantitative PCR.

PDGFRβ = target: T2, PDGFRβ (Homo sapiens, UniProt P09619); assay: Competition binding assay, PDGFRβ Kd
T2 construct: made in house
Protocol: as §1

FLT3 = target: T3, FLT3 (Homo sapiens, UniProt P36888); assay: Competition binding assay, FLT3 Kd
T3 construct: made in house
T3 sequence (P36888 27-993): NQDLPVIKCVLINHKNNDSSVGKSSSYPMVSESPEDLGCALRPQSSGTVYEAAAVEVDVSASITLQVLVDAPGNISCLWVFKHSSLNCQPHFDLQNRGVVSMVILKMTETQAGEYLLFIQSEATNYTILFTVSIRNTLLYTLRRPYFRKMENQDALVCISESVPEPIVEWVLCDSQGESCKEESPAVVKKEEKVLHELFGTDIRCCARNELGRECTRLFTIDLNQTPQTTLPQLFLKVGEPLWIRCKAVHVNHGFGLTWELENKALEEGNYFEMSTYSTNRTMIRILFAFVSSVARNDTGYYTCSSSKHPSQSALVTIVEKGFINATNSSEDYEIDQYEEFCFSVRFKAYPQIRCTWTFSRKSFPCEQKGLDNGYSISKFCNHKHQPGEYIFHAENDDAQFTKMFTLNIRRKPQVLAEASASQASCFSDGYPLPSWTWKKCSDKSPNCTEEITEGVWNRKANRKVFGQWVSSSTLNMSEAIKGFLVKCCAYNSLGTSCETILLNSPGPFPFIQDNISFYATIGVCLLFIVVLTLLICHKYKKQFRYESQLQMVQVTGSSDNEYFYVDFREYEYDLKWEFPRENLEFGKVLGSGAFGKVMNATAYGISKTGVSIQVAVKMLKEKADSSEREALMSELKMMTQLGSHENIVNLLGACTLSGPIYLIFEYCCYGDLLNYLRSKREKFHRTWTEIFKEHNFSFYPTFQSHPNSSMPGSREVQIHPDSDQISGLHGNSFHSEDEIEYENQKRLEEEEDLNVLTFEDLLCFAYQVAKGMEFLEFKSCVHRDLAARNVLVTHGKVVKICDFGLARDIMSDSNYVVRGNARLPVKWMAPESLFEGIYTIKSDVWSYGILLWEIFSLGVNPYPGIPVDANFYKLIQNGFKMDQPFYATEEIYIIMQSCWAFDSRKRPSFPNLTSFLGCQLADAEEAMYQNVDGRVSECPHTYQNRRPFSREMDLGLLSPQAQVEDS
Protocol: as §1

CSF1R [1] = target: T4, CSF1R (Homo sapiens, UniProt P07333); assay: Competition binding assay, CSF1R Kd; set-up: made in house
Protocol: as §1

M-NFS-60 cells = assay: M-NFS-60 cell proliferation assay (Alamar Blue); format: cell-based, mouse; conditions: Mus musculus; 72 hours incubation, M-CSF 20 ng/mL; read-out: CSF1R M-NFS-60 CTB:IC50
Protocol: The compounds disclosed herein were tested in an M-NFS-60 cell proliferation assay to determine their cellular potency against CSF1R. M-NFS-60s are mouse monocytic cells that depend on the binding of the ligand M-CSF to its receptor, CSF1R, to proliferate. Inhibition of CSF1R kinase activity will cause reduced growth and/or cell death. This assay assesses the potency of compounds as CSF1R inhibitors by measuring the reduction of Alamar Blue reagent by viable cells.
On day one of the experiment, M-NFS-60 cells were maintained in RPMI complete medium (Omega Scientific) plus 10% FBS supplemented with 20 ng/mL of M-CSF (R&D Systems). 96-well TC-treated, flat bottom plates were seeded at 10,000 cell/well at a volume of 100 μL per well. The cells were cultured overnight at 37° C. under 5% CO2.
On day two, compounds were added to the cells at 9 different concentrations, with half-log intervals alongside a control reference compound serving as a positive control. Final DMSO concentration was kept at 0.5% for a final volume of 200 μL. The compounds were allowed to incubate with the cells for 72 hours at 37° C. under 5% CO2.
On day five of the experiment, 40 μl of Alamar Blue reagent was added to each well and allowed to incubate for 3 hours. Alamar Blue fluorescence was read using SoftMax Pro software at 560 nm (excitation) and 590 nm (emission). IC50s were generated as an average of duplicates and represents the concentration of test compound that achieves 50% inhibition of cellular proliferation compared to control.

CSF1R [2] = target: T4, CSF1R; assay: HEK293 CSF1R phosphorylation MSD assay; format: cell-based; set-up: expressed in transfected cells; host or cells: HEK293; conditions: 2 h compound, human M-CSF 50 ng/mL for 5 min; read-out: HEK293 pCSF1R M-CSF MSD:IC50
Protocol: The compounds disclosed herein were tested in a CSF1R phosphorylation assay to determine their cellular potency against CSF1R. A HEK293 cell line expressing CSF1R fused to FK506 binding protein (FKBP) as a molecular tag was generated. Inhibition of CSF1R kinase activity will prevent ligand-stimulated autophosphorylation of the CSF1R-FKBP in intact cells. Subsequent cell lysates are assayed in a sandwich ELISA employing the electrochemiluminescent Meso Scale Discovery (MSD) technology for the presence of the phosphorylated (p)CSF1R-FKBP. This assay determines the potency of compounds as CSF1R inhibitors by measuring the reduction in the amount of pCSF1R with increasing doses of compounds added to the cells prior to M-CSF stimulation.
On day one of the experiment, HEK293-CSF1R-FKPB cells, maintained in DMEM, with L-glutamine (Mediatech), 10% FBS, and 100 units/mL Penicillin/Streptomycin, were seeded at 50,000 cell/well in a volume of 100 μL per well in 96-well Cell Bind plates (Costar). The cells were cultured overnight at 37° C. under 5% CO2. To prepare the plates used in the MSD assay, a 330 nM biotin-FK506 (in TBS pH 7.2) solution was added at 30 μL per well to streptavidin-coated 96-well plates (MSD), and incubated overnight at room temperature, shaking at 500 rpm on an orbital shaker.
On day two, compounds diluted in DMSO were added to the cells in duplicate plates at 9 different concentrations with half-log intervals, plus DMSO only control, alongside a reference compound serving as a positive control. Final DMSO concentration was 0.5% in a volume of 200 μL per well. The compounds were allowed to incubate with the cells for 2 h at 37° C. under 5% CO2. At the end of the incubation, human M-CSF (R&D Systems) was added for 5 min to a final concentration of 50 ng/mL to stimulate CSF1R phosphorylation. Cells were lysed for 20 min, and the lysates were applied to the washed, FK506-coated MSD plates, and incubated overnight at 4° C. shaking at 500 rpm.
On day three, the MSD plates were washed, and the captured CSF1R-FKBP was assayed sequentially for phosphorylation using mouse anti-phosphotyrosine antibody (Millipore) and Sulfo-TAG goat anti-mouse IgG antibody (MSD), and detected on a Sector Imager 6000 instrument (MSD).
A single IC50 value for each compound was determined by averaging the IC50s of the duplicates calculated using Igor Pro 6 software, and represents the compound concentration that achieves a 50% inhibition of ligand-induced CSF1R phosphorylation compared to DMSO control.

T4 sequence (P07333 20-972): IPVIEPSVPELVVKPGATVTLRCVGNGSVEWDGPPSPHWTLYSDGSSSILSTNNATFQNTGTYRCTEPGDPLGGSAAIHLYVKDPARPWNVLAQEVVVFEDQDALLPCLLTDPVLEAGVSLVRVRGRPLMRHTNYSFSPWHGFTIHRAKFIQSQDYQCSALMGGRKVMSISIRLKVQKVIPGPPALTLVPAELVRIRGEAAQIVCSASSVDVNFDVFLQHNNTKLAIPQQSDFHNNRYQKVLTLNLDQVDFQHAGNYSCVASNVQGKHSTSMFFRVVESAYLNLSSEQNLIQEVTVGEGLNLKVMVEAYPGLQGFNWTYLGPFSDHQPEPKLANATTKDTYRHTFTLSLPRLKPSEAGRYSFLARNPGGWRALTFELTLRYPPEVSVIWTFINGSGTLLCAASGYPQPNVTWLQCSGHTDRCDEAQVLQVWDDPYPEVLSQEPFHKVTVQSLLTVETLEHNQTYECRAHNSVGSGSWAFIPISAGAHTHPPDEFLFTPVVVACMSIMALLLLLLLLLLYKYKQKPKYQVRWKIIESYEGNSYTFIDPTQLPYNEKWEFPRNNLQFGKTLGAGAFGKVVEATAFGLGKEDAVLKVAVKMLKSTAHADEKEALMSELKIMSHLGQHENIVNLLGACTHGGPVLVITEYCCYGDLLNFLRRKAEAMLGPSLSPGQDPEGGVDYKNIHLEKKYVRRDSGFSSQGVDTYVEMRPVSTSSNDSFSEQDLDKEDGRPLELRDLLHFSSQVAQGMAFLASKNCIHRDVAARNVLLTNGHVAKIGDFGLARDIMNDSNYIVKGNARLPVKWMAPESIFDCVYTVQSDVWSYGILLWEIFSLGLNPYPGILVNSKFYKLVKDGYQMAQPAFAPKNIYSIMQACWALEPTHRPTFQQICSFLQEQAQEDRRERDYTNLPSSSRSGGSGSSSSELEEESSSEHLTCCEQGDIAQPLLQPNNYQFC
T1 sequence (P10721 26-976): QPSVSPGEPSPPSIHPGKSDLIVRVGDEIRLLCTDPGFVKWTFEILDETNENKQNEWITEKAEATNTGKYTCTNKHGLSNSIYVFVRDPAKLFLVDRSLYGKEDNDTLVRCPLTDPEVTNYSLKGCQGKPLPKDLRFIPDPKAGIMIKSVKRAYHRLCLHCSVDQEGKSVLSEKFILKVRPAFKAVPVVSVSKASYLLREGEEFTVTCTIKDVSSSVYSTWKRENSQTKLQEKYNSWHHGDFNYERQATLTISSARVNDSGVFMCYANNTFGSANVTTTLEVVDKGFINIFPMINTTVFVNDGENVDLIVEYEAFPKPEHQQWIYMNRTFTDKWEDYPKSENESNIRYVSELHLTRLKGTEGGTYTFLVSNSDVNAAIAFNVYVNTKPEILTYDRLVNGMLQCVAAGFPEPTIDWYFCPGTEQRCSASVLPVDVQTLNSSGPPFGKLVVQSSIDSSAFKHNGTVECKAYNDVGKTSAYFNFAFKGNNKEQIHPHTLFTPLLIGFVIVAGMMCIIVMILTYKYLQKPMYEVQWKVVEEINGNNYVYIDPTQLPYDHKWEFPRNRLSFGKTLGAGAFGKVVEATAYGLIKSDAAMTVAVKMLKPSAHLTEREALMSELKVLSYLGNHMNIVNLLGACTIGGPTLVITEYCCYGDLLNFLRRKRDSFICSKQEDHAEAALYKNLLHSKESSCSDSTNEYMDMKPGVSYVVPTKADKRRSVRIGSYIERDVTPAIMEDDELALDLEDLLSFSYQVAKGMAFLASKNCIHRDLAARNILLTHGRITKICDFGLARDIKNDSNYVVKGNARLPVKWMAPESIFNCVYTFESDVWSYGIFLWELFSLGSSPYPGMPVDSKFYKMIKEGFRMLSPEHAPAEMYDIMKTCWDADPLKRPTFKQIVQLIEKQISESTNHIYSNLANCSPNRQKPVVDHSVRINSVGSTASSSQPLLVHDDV
T2 sequence (P09619 33-1106): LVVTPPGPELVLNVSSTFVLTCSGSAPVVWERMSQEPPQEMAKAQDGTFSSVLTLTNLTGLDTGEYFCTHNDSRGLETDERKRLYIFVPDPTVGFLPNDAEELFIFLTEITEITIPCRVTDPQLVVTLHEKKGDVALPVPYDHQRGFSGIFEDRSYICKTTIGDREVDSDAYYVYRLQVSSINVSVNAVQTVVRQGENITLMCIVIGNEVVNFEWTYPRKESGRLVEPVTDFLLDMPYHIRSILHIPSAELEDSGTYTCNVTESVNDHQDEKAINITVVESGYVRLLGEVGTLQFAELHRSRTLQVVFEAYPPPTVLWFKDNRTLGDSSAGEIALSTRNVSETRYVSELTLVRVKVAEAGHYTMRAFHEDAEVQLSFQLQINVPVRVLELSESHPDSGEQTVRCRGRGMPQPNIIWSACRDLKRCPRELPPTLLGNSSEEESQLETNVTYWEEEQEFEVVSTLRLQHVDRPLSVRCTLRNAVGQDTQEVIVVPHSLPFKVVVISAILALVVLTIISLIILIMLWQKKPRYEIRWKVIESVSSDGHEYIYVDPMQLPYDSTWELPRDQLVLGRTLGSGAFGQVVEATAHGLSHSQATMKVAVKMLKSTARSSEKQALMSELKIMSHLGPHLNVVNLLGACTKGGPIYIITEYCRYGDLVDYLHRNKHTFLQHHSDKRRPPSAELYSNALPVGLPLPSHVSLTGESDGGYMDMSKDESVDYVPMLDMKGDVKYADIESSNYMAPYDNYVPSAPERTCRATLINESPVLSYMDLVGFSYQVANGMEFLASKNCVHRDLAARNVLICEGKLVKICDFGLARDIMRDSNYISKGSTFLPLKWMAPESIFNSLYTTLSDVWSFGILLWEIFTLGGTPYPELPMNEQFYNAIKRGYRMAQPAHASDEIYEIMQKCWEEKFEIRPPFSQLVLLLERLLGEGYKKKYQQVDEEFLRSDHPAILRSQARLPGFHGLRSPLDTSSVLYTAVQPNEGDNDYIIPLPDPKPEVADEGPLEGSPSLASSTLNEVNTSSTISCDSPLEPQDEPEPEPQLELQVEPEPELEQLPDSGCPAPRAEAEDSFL

Row | SMILES | Kd (KIT) [nM] | Kd (PDGFRβ) [nM] | Kd (FLT3) [nM] | Kd (CSF1R [1]) [nM] | IC50 (M-NFS-60 cells) [nM] | IC50 (CSF1R [2]) [nM]
1 | O[C@H]1CCCC[C@H]1Nc1nc2ccc(Cn3cnc4ccccc43)cc2s1 (racemic) [Example 1, 2-((6-((1H-benzo[d]imidazol-1-yl)methyl)benzo[d]thiazol-2-yl)amino)cyclohexanol] | 100 to 500 | 50 to 500 | 1000 to 5000 | 5 to 20 | 50 to 400 | 50 to 200
2 | Nc1nc2cccnc2n1Cc1ccc2nc(N[C@@H]3CCCC[C@H]3O)sc2c1 [Example 26, 3-((2-(((1R,2R)-2-hydroxycyclohexyl)amino)benzo[d]thiazol-6-yl)methyl)-3H-imidazo[4,5-b]pyridin-2-aminium acetic acid] | > 2000 | > 2000 | 200 to 1000 | 5 to 20 | > 1500 | > 500
3 | COc1ccc2ncn(Cc3ccc4nc(N[C@@H]5CCCC[C@H]5O)sc4c3)c2c1 [Example 67, (1R,2R)-2-((6-((6-methoxy-1H-benzo[d]imidazol-1-yl)methyl)benzo[d]thiazol-2-yl)amino)cyclohexanol] | ≤ 100 | 50 to 500 | 1000 to 5000 | 5 to 20 | 50 to 400 | 50 to 200
4 | COc1cc2ncn(Cc3ccc4nc(N(C)C5CCCCC5)sc4c3)c2cc1OC [Example 16, N-cyclohexyl-6-((5,6-dimethoxy-1H-benzo[d]imidazol-1-yl)methyl)-N-methylbenzo[d]thiazol-2-amine] | 100 to 500 | 500 to 2000 | 200 to 1000 | 20 to 50 | > 1500 | 200 to 500
5 | Cn1cc(-c2nccn(Cc3ccc4nc(N[C@@H]5CCCC[C@H]5O)sc4c3)c2=O)cn1 [Example 103, 1-((2-(((1R,2R)-2-hydroxycyclohexyl)amino)benzo[d]thiazol-6-yl)methyl)-3-(1-methyl-1H-pyrazol-4-yl)pyrazin-2(1H)-one] | > 2000 | 50 to 500 | > 5000 | 5 to 20 | 50 to 400 | 50 to 200
6 | COc1cc2ncn(Cc3ccc4nc(N[C@H]5CCc6ccccc65)sc4c3)c2cc1OC [Example 11, (S)—N-(2,3-dihydro-1H-inden-1-yl)-6-((5,6-dimethoxy-1H-benzo[d]imidazol-1-yl)methyl)benzo[d]thiazol-2-amine] | 100 to 500 | 50 to 500 | 200 to 1000 | 5 to 20 | 400 to 1500 | 200 to 500
7 | COc1cc2ncn(Cc3ccc4nc(NC5CCOCC5)sc4c3)c2cc1OC [Example 15, 6-((5,6-dimethoxy-1H-benzo[d]imidazol-1-yl)methyl)-N-(tetrahydro-2H-pyran-4-yl)benzo[d]thiazol-2-amine] | 500 to 2000 | > 2000 | > 5000 | 20 to 50 | > 1500 | 200 to 500
8 | COc1cc2ncn(Cc3ccc4nc(N[C@@H]5c6ccccc6C[C@H]5O)sc4c3)c2cc1OC [Example 19, (1R,2R)-1-((6-((5,6-dimethoxy-1H-benzo[d]imidazol-1-yl)methyl)benzo[d]thiazol-2-yl)amino)-2,3-dihydro-1H-inden-2-ol] | 100 to 500 | 50 to 500 | 1000 to 5000 | ≤ 5 | 50 to 400 | 50 to 200
9 | O[C@@H]1CCCC[C@H]1Nc1nc2ccc(Cn3cnc4cc(-c5nn[nH]n5)cnc43)cc2s1 [Example 93, (1R,2R)-2-((6-((6-(2H-tetrazol-5-yl)-3H-imidazo[4,5-b]pyridin-3-yl)methyl)benzo[d]thiazol-2-yl)amino)cyclohexanol] | ≤ 100 | ≤ 50 | 200 to 1000 | 5 to 20 | > 1500 | > 500
